Experimental data reported in PMC6199744, “Development of Chemical Proteomics for the Folateome and Analysis of the Kinetoplastid Folateome” (ACS Infectious Diseases, 2018).
Read-outs that look alike come from different tables or passages of the source.

How the values were obtained:
Format in all cases: binding
[1] = target: T1, HeLa cell extract proteins (Homo sapiens, UniProt O75306)
T1 construct: endogenous in cells; host or cells: HeLa cell extract

[2] = target: T2, HeLa cell extract proteins (Homo sapiens, UniProt O95372)
T2 construct: endogenous in cells; host or cells: HeLa cell extract
T2 sequence (O95372 whole entry): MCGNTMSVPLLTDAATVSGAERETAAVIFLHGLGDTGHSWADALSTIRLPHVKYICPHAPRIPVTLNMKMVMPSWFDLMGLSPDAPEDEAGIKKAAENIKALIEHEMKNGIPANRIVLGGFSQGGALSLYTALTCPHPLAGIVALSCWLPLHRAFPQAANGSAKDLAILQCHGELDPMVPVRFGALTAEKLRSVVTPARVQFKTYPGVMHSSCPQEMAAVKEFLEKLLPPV

[3] = target: T3, HeLa cell extract proteins (Homo sapiens, UniProt P34932)
T3 construct: endogenous in cells; host or cells: HeLa cell extract
T3 sequence (P34932 whole entry): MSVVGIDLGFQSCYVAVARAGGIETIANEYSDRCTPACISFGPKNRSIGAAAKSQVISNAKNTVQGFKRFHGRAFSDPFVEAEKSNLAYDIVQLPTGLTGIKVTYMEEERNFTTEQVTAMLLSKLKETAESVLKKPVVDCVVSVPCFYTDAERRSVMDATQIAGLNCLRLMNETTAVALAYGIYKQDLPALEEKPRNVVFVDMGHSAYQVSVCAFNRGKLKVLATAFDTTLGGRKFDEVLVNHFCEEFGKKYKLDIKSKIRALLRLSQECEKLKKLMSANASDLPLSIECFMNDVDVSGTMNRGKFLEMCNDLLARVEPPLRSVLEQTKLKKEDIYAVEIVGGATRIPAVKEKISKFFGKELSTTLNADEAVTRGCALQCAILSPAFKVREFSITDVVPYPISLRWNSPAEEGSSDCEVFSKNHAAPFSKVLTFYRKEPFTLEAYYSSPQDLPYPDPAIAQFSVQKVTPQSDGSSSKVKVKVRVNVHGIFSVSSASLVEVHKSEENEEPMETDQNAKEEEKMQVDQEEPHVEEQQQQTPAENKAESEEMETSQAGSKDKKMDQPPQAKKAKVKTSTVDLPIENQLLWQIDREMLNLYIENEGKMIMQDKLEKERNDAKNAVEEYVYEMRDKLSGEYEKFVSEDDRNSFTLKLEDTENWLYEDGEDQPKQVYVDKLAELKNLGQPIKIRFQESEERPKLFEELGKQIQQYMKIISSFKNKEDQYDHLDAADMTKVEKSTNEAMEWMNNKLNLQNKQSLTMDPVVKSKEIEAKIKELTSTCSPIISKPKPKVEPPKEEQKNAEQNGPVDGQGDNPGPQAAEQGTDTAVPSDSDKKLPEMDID

[4] = target: T4, HeLa cell extract proteins (Homo sapiens, UniProt Q15008)
T4 construct: endogenous in cells; host or cells: HeLa cell extract
T4 sequence (Q15008 1-389): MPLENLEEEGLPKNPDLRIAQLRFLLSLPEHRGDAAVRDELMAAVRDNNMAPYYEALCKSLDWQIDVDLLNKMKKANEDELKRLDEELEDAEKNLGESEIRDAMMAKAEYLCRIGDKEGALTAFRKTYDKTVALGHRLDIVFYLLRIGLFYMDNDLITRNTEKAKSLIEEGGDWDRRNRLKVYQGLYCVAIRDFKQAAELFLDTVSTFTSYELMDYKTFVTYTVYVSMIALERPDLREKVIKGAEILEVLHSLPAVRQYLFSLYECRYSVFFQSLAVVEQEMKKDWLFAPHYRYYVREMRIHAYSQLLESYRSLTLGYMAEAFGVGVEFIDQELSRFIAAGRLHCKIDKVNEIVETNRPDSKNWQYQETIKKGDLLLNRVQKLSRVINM

[5] = target: T5, HeLa cell extract proteins (Homo sapiens, UniProt Q96EN8)
T5 construct: endogenous in cells; host or cells: HeLa cell extract
T5 sequence (Q96EN8 1-888): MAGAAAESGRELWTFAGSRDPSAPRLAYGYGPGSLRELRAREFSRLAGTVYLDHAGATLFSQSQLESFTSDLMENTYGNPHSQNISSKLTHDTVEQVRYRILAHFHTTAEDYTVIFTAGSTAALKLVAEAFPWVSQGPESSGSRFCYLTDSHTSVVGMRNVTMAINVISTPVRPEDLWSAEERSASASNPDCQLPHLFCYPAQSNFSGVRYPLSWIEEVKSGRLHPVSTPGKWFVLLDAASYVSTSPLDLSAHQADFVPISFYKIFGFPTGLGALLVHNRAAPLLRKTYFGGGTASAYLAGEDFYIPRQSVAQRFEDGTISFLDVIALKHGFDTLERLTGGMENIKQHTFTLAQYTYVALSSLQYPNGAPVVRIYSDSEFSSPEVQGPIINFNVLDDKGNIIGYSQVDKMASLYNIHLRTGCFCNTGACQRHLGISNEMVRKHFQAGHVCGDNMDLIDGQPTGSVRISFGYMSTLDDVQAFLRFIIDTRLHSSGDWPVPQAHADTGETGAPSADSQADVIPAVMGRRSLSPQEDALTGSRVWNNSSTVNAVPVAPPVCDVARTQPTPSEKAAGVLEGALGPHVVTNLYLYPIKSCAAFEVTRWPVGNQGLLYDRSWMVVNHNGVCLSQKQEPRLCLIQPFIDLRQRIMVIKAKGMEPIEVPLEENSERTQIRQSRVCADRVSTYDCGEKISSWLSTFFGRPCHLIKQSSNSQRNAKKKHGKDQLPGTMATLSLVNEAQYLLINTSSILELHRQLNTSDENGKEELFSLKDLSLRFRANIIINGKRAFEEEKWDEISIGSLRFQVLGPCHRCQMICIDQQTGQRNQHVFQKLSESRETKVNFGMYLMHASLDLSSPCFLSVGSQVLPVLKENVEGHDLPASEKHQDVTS

[6] = target: T6, HeLa cell extract proteins (Homo sapiens, UniProt Q99683)
T6 construct: endogenous in cells; host or cells: HeLa cell extract
T6 sequence (Q99683 1-1374): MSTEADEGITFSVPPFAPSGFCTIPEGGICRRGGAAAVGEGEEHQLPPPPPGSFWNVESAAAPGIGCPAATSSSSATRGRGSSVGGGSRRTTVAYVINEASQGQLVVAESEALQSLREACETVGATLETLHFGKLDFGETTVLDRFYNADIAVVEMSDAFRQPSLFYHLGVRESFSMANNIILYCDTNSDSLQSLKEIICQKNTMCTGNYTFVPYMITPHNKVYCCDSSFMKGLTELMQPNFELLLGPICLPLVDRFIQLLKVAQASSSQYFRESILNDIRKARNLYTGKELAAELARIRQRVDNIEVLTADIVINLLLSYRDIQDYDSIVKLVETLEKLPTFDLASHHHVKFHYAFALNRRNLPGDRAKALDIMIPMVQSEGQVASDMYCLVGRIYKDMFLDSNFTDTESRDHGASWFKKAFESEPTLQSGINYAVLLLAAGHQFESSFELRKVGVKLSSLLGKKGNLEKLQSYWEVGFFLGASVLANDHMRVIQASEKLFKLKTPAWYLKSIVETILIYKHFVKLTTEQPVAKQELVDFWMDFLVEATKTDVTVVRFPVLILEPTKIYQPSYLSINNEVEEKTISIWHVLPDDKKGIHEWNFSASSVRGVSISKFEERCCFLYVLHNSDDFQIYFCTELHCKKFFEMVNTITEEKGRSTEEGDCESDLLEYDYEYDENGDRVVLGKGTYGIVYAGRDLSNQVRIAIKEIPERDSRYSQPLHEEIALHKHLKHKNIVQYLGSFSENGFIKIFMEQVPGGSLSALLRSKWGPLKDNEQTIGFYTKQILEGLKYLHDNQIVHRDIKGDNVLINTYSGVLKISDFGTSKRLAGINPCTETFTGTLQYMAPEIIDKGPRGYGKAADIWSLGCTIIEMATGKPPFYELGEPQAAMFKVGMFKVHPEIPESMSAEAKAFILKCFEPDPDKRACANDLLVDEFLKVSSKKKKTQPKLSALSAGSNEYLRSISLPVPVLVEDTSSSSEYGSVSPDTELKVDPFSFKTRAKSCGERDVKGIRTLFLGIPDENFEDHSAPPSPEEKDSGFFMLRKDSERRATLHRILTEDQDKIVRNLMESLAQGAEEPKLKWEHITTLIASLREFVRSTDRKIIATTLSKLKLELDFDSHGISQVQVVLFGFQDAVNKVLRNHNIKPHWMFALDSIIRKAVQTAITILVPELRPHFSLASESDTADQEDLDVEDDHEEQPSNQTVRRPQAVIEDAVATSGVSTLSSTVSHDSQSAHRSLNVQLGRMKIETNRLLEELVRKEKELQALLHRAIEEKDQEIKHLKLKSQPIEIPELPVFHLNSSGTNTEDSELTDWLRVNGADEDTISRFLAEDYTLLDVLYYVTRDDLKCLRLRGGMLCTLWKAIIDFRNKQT

[7] = HeLa, protein MAP3K5 (MITOGEN-ACTIVATED PROTEIN KINASE KINASE KINASE 5)

T1 sequence (O75306 34-463): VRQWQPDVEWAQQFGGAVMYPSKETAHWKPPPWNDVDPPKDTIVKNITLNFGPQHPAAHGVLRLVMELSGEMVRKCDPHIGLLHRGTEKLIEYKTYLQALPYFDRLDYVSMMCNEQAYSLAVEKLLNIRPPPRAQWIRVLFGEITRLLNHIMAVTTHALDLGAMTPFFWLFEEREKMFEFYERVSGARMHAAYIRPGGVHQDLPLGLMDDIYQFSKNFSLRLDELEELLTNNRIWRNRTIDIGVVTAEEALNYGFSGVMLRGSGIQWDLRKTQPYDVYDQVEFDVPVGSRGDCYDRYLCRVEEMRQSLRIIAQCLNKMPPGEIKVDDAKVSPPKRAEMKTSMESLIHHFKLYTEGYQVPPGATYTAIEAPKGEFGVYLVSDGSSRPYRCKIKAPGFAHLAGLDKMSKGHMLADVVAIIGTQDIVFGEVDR

In the case of `Nc1nc2cccc(-c3ccccc3)c2n1Cc1ccc(Cl)c(Cl)c1` [compound 3], the “fold changes relative to vehicle control” value ([1]; HeLa, protein NDUFS2) was 1.3, the “fold changes relative to vehicle control” value ([2]; HeLa, protein LYPLA2) was 0.97 and the “fold changes relative to vehicle control” value ([3]; protein HSPA4, HeLa) was 0.92. For the same compound, the “fold changes relative to vehicle control” value ([4]; protein PSMD6, HeLa) was 1.72, the “fold changes relative to vehicle control” value ([5]; HeLa, protein MOCOS) was 0.96 and the “fold changes relative to vehicle control” value ([6]; HeLa, protein MAP3K5) was 1.1.

With `CCCCCCOc1ccc(Cc2cnc(N)nc2N)cc1` [compound 1] the “fold changes relative to vehicle control” value ([1]; HeLa, protein NDUFS2) was 1.15, the “fold changes relative to vehicle control” value ([2]; HeLa, protein LYPLA2) was 0.82 and the “fold changes relative to vehicle control” value ([3]; protein HSPA4, HeLa) was 1.19. The “fold changes relative to vehicle control” value ([4]; protein PSMD6, HeLa) was 0.94, the “fold changes relative to vehicle control” value ([5]; HeLa, protein MOCOS) was 1.03 and the “fold changes relative to vehicle control” value ([6]; HeLa, protein MAP3K5) was 1.03.

With `NCCCNc1ccc(C(=O)NC(CCC(=O)O)C(=O)O)cc1` (stereo not drawn) [compound 7] the “fold changes relative to vehicle control” value ([1]; protein NDUFS2, HeLa) was 1.13, the “fold changes relative to vehicle control” value ([2]; protein LYPLA2, HeLa) was 1.01 and the “fold changes relative to vehicle control” value ([3]; HeLa, protein HSPA4) was 0.92. For the same compound, the “fold changes relative to vehicle control” value ([4]; HeLa, protein PSMD6) was 0.82, the “fold changes relative to vehicle control” value ([5]; HeLa, protein MOCOS) was 1.06 and the “fold changes relative to vehicle control” value [6, 7] was 1.09.

In the case of `CCCCCCOc1cccc(Cc2cnc(N)nc2N)c1` [compound 2], the “fold changes relative to vehicle control” value ([1]; HeLa, protein NDUFS2) was 1.12, the “fold changes relative to vehicle control” value ([2]; HeLa, protein LYPLA2) was 1.19 and the “fold changes relative to vehicle control” value ([3]; protein HSPA4, HeLa) was 2.1. The “fold changes relative to vehicle control” value ([4]; protein PSMD6, HeLa) was 1.64, the “fold changes relative to vehicle control” value ([5]; HeLa, protein MOCOS) was 1.11 and the “fold changes relative to vehicle control” value ([6]; HeLa, protein MAP3K5) was 1.14.

For `NCCOCCOCC(=O)Nc1nc2ncc(CNc3ccc(C(=O)NC(CCC(=O)O)C(=O)O)cc3)nc2c(=O)[nH]1` (stereo not drawn) [compound 6], the “fold changes relative to vehicle control” value ([1]; protein NDUFS2, HeLa) was 1.12, the “fold changes relative to vehicle control” value ([2]; protein LYPLA2, HeLa) was 1.09 and the “fold changes relative to vehicle control” value ([3]; HeLa, protein HSPA4) was 1.26. The “fold changes relative to vehicle control” value ([4]; HeLa, protein PSMD6) was 0.89, the “fold changes relative to vehicle control” value ([5]; HeLa, protein MOCOS) was 1.11 and the “fold changes relative to vehicle control” value [6, 7] was 1.12.

`Nc1nc2[nH]cc(CCc3ccc(C(=O)N[C@@H](CCC(=O)O)C(=O)O)cc3)c2c(=O)[nH]1` [PTX, pemetrexed] was tested, and the “fold changes relative to vehicle control” value [1] was 0.92, the “fold changes relative to vehicle control” value [2] was 0.99 and the “fold changes relative to vehicle control” value [3] was 1.09. The “fold changes relative to vehicle control” value [4] was 0.69, the “fold changes relative to vehicle control” value [5] was 1.01 and the “fold changes relative to vehicle control” value [6] was 1.18.

`Nc1nc2c(c(=O)[nH]1)N(C=O)C(CNc1ccc(C(=O)N[C@@H](CCC(=O)O)C(=O)O)cc1)CN2` (stereo partly drawn) [LEU, leucovorin] was tested, and the “fold changes relative to vehicle control” value ([1]; protein NDUFS2, HeLa) was 0.86, the “fold changes relative to vehicle control” value ([2]; protein LYPLA2, HeLa) was 0.89 and the “fold changes relative to vehicle control” value ([3]; HeLa, protein HSPA4) was 0.97. The “fold changes relative to vehicle control” value ([4]; HeLa, protein PSMD6) was 0.77, the “fold changes relative to vehicle control” value ([5]; HeLa, protein MOCOS) was 1.07 and the “fold changes relative to vehicle control” value [6, 7] was 1.13.
